# How the values were obtained:
# [1] = alamarBlue viability, infected Calu-3 cells; format: cell-based; details: human
# BIKE = BIKE (Homo sapiens, UniProt Q9NSY1); assay: In vitro binding, dissociation constant
# AAK1 = AAK1 (Homo sapiens, UniProt Q2M2I8); assay: In vitro binding, dissociation constant
# rSARS-CoV-2/Nluc = assay: microbe, parasite or virus in culture; format: cell-based, SARS-CoV-2; details: for EC50: Severe acute respiratory syndrome coronavirus 2, Calu-3, read-out: EC50, SARS-CoV-2 infection, Calu-3 cells
# [2] = alamarBlue viability, infected Vero E6 cells; format: cell-based; details: African green monkey, 24 hpi
# PDGFRβ = details: ref Davis et al.,2011; cited from earlier work
# JAK2 = details: ref Stebbing et al.,2021; Klaeger et al.,2017; cited from earlier work
# TYK2 = details: ref Stebbing et al.,2021; Klaeger et al.,2017; cited from earlier work
# EGFR = details: ref Asquith et al., 2019a, 2019b; Davis et al.,2011; cited from earlier work
# YSK4 = details: ref Asquith et al., 2019a, 2019b; Davis et al.,2011; cited from earlier work
# STK10 = details: ref Asquith et al., 2019a, 2019b; Davis et al.,2011; cited from earlier work
# SLK = details: ref Asquith et al., 2019a, 2019b; Davis et al.,2011; cited from earlier work
# RIPK2 = details: ref Asquith et al., 2019a, 2019b; cited from earlier work
# ADCK3 = details: ref Asquith et al., 2019a, 2019b; cited from earlier work
# NLK = details: ref Asquith et al., 2019a, 2019b; cited from earlier work
# AAK1, sequence (Q2M2I8 whole entry): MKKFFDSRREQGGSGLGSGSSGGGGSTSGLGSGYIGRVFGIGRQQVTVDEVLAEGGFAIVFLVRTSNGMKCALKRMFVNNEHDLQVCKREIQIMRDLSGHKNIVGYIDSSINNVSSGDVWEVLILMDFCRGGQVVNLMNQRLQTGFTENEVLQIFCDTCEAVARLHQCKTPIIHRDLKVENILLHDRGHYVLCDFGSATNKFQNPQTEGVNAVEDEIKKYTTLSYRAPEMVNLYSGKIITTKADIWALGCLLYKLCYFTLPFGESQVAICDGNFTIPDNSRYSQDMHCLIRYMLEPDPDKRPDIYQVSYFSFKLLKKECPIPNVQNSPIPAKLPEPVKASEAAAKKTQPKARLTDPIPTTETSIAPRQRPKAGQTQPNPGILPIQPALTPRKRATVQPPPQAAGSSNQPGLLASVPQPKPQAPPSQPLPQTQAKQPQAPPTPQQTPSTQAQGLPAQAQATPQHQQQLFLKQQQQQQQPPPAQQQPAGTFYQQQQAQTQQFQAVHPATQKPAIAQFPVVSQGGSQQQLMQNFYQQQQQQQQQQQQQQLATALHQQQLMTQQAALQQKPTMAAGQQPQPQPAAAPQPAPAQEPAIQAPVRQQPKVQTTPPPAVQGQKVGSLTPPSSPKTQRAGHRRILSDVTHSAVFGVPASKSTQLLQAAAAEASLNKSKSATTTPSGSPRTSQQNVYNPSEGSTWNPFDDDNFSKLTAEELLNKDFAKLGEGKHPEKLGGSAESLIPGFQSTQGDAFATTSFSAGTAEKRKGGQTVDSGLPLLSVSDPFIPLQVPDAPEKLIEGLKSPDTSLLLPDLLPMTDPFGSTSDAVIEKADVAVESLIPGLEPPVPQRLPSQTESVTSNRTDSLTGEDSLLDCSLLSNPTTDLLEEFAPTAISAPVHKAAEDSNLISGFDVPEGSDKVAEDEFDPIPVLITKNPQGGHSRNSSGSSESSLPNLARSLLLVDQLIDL
# BIKE, sequence (Q9NSY1 whole entry): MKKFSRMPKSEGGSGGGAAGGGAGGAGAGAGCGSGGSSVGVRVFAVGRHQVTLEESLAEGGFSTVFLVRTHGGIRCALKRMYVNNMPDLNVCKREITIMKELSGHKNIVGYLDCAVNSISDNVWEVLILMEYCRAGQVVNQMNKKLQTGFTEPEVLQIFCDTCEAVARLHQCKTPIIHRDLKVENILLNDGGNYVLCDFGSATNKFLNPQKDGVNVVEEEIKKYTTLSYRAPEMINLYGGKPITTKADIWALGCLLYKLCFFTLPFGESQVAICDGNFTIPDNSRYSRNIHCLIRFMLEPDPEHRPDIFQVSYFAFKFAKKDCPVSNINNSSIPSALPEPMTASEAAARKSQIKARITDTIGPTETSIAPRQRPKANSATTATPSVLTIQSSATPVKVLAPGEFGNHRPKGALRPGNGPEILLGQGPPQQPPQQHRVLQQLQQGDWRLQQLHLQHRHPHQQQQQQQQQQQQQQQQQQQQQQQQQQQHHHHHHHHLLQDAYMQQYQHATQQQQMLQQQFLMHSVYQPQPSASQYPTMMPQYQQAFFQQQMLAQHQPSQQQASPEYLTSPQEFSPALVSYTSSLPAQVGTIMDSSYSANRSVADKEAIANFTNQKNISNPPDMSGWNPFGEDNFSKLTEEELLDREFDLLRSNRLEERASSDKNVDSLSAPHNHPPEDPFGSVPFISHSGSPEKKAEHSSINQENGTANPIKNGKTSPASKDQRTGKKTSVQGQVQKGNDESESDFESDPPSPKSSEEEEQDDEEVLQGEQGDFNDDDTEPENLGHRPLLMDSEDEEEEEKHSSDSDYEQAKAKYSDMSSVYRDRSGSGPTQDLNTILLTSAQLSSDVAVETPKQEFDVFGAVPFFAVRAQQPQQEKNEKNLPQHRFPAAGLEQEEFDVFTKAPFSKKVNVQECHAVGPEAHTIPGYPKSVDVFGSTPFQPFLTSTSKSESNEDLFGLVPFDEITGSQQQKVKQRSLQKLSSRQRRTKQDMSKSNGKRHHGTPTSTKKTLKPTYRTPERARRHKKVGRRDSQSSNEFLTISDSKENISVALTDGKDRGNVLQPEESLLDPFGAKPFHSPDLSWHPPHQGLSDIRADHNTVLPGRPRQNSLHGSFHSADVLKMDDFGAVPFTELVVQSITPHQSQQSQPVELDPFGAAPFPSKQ
compound,measurement,setting,value
"C=CC(=O)Nc1cccc(-c2snc3cc(-c4ccc(N)c(OC)c4)cnc23)c1 [RMC-242, N-(3-(6-(4-amino-3-methoxyphenyl)isothiazolo [4,3-b]pyridin-3-yl)phenyl) acrylamide]",CC50 at 24 h post infection,[1],> 20 µM
same,Kd,BIKE,> 15 µM
same,Kd,AAK1,4.1 µM
same,EC50,rSARS-CoV-2/Nluc,1600 nM
same,CC50 at 24 h post infection,[2],16 µM
"CCN(CC)CCNC(=O)c1c(C)[nH]c(/C=C2\C(=O)Nc3ccc(F)cc32)c1C [Sunitinib, sunitinib]",CC50 at 24 h post infection,[1],> 20 µM
same,"PDGFRβ (Other targets, measure not stated)",PDGFRβ,2 nM
same,EC50,rSARS-CoV-2/Nluc,2900 nM
same,CC50 at 24 h post infection,[2],12.2 µM
"CCS(=O)(=O)N1CC(CC#N)(n2cc(-c3ncnc4[nH]ccc34)cn2)C1 [Baricitinib, baricitinib]","JAK2 (Other targets, measure not stated)",JAK2,5.7 nM
same,"TYK2 (Other targets, measure not stated)",TYK2,53 nM
same,antiviral activity in Calu-3 cells,rSARS-CoV-2/Nluc,largely no antiviral activity
"C#Cc1cccc(Nc2ncnc3cc(OCCOC)c(OCCOC)cc23)c1 [Erlotinib, erlotinib]","ErbB1 (Other targets, measure not stated)",EGFR,0.7 nM
same,"YSK4 (Other targets, measure not stated)",YSK4,25 nM
same,"STK10 (Other targets, measure not stated)",STK10,19 nM
same,EC50,rSARS-CoV-2/Nluc,> 20000 nM
same,"SLK (Other targets, measure not stated)",SLK,26 nM
COc1cc(Nc2ccnc3ccc(Br)cc23)cc(OC)c1OC [SGC-GAK-1],"RIPK2 (Other targets, measure not stated)",RIPK2,110 nM
same,CC50 at 24 h post infection,[1],> 20 µM
same,"ADCK3 (Other targets, measure not stated)",ADCK3,190 nM
same,EC50,rSARS-CoV-2/Nluc,2300 nM
same,"NLK (Other targets, measure not stated)",NLK,520 nM
same,CC50 at 24 h post infection,[2],> 20 µM

# Reference: publication PMC9212491 (Antiviral Research, 2022)
